# From patent publication US20040063662A1, “Selenophene anti-tumor agents” (priority 1996, published 2004)
# Tests used:
# NCI-H23 = assay: NCI human tumor cell panel: NCI-H23 (Non-Small Cell Lung Cancer); format: cell-based; conditions: NCI-H23, Non-Small Cell Lung Cancer
# LOX IMVI = assay: NCI human tumor cell panel: LOX IMVI (Melanoma); format: cell-based; conditions: Melanoma
# NCI-H322M = assay: cells; format: cell-based; conditions: Homo sapiens, Non-Small Cell Lung Cancer
# SNB-75 = assay: NCI human tumor cell panel: SNB-75 (CNS Cancer); format: cell-based; conditions: SNB-75, CNS Cancer
# HT29 = assay: NCI human tumor cell panel: HT29 (Colon Cancer); format: cell-based; conditions: HT-29, HT29, Colon Cancer
# HCT-15 = assay: NCI human tumor cell panel: HCT-15 (Colon Cancer); format: cell-based; conditions: HCT-15, Colon Cancer
# OVCAR-5 = assay: NCI human tumor cell panel: OVCAR-5 (Ovarian Cancer); format: cell-based; conditions: OVCAR-5, Ovarian Cancer
# SF-539 = assay: NCI human tumor cell panel: SF-539 (CNS Cancer); format: cell-based; conditions: SF-539, CNS Cancer
# IGROV1 = assay: NCI human tumor cell panel: IGROV1 (Ovarian Cancer); format: cell-based; conditions: IGROV-1, IGROV1, Ovarian Cancer
# HOP-92 = assay: NCI human tumor cell panel: HOP-92 (Non-Small Cell Lung Cancer)
# HS 578T = assay: NCI human tumor cell panel: HS 578T (Breast Cancer); format: cell-based; conditions: Breast Cancer
# SNB-19 = assay: NCI human tumor cell panel: SNB-19 (CNS Cancer); format: cell-based; conditions: SNB-19, CNS Cancer
# M14 = assay: NCI human tumor cell panel: M14 (Melanoma); format: cell-based; conditions: M14, Melanoma
# SK-MEL-28 = assay: NCI human tumor cell panel: SK-MEL-28 (Melanoma); format: cell-based; conditions: SK-MEL-28, Melanoma
# SK-MEL-2 = assay: NCI human tumor cell panel: SK-MEL-2 (Melanoma); format: cell-based; conditions: SK-MEL-2, Melanoma
# U251 = assay: NCI human tumor cell panel: U251 (CNS Cancer); format: cell-based; conditions: U-251, U251, CNS Cancer
# MDA-MB-435 = assay: NCI human tumor cell panel: MDA-MB-435 (Breast Cancer); format: cell-based; conditions: MDA-MB-435, Breast Cancer
# PC-3 = assay: NCI human tumor cell panel: PC-3 (Prostate Cancer); format: cell-based; conditions: PC-3, Prostate Cancer
# 786-0 = assay: NCI human tumor cell panel: 786-0 (Renal Cancer); format: cell-based; conditions: 786-0, Renal Cancer
# HOP-62 = assay: NCI human tumor cell panel: HOP-62 (Non-Small Cell Lung Cancer); format: cell-based; conditions: HOP-62, Non-Small Cell Lung Cancer
# EKVX = assay: NCI human tumor cell panel: EKVX (Non-Small Cell Lung Cancer); format: cell-based; conditions: Non-Small Cell Lung Cancer
# TK-10 = assay: NCI human tumor cell panel: TK-10 (Renal Cancer); format: cell-based; conditions: TK-10, Renal Cancer
# OVCAR-4 = assay: NCI human tumor cell panel: OVCAR-4 (Ovarian Cancer); format: cell-based; conditions: OVCAR-4, Ovarian Cancer
# MDA-N = assay: NCI human tumor cell panel: MDA-N (Breast Cancer); format: cell-based; conditions: Breast Cancer
# NCI-H522 = assay: NCI human tumor cell panel: NCI-H522 (Non-Small Cell Lung Cancer)
# NCI-H460 = assay: NCI human tumor cell panel: NCI-H460 (Non-Small Cell Lung Cancer); format: cell-based; conditions: NCI-H460, Non-Small Cell Lung Cancer
# SF-295 = assay: NCI human tumor cell panel: SF-295 (CNS Cancer); format: cell-based; conditions: SF-295, CNS Cancer
# BT-549 = assay: NCI human tumor cell panel: BT-549 (Breast Cancer); format: cell-based; conditions: BT-549, Breast Cancer
# HCC-2998 = assay: NCI human tumor cell panel: HCC-2998 (Colon Cancer); format: cell-based; conditions: HCC-2998, Colon Cancer
# UO-31 = assay: NCI human tumor cell panel: UO-31 (Renal Cancer); format: cell-based; conditions: UO-31, Renal Cancer
# [1] = read-out: Log10 GI50 (converted)
# [2] = read-out: Log10 TGI (converted)
compound,measurement,setting,value
O=Cc1ccc(-c2ccc(-c3ccc[se]3)[se]2)[se]1 [NSC 675244],GI50,NCI-H23; [1],13.5 µM
same,IC (TGI),NCI-H23; [2],30.9 µM
same,GI50,LOX IMVI; [1],5.62 µM
same,IC (TGI),LOX IMVI; [2],20.9 µM
same,GI50,NCI-H322M; [1],13.2 µM
same,IC (TGI),NCI-H322M; [2],28.2 µM
same,GI50,SNB-75; [1],2 µM
same,IC (TGI),SNB-75; [2],6.46 µM
same,GI50,HT29; [1],3.24 µM
same,IC (TGI),HT29; [2],13.2 µM
same,GI50,HCT-15; [1],7.41 µM
same,IC (TGI),HCT-15; [2],26.3 µM
same,GI50,OVCAR-5; [1],0.55 µM
same,IC (TGI),OVCAR-5; [2],13.2 µM
same,GI50,SF-539; [1],17 µM
same,IC (TGI),SF-539; [2],33.1 µM
same,GI50,IGROV1; [1],3.31 µM
same,IC (TGI),IGROV1; [2],15.5 µM
same,GI50,"HOP-92; HOP-92, read-out: Log10 GI50 (converted)",11 µM
same,IC (TGI),"HOP-92; HOP-92, read-out: Log10 TGI",25.7 µM
same,GI50,HS 578T; [1],7.24 µM
same,IC (TGI),HS 578T; [2],21.9 µM
same,GI50,SNB-19; [1],10.2 µM
same,IC (TGI),SNB-19; [2],30.2 µM
same,GI50,M14; [1],11.5 µM
same,IC (TGI),M14; [2],28.8 µM
same,GI50,SK-MEL-28; [1],13.2 µM
same,IC (TGI),SK-MEL-28; [2],26.9 µM
same,GI50,SK-MEL-2; [1],16.6 µM
same,IC (TGI),SK-MEL-2; [2],45.7 µM
same,GI50,U251; [1],0.316 µM
same,IC (TGI),U251; [2],13.8 µM
same,GI50,MDA-MB-435; [1],10.2 µM
same,IC (TGI),MDA-MB-435; [2],33.1 µM
same,GI50,PC-3; [1],12 µM
same,IC (TGI),PC-3; [2],32.4 µM
same,GI50,786-0; [1],6.03 µM
same,IC (TGI),786-0; [2],18.6 µM
same,GI50,HOP-62; [1],12 µM
same,IC (TGI),HOP-62; [2],29.5 µM
same,GI50,EKVX; [1],25.1 µM
same,IC (TGI),EKVX; [2],64.6 µM
same,GI50,TK-10; [1],0.288 µM
same,IC (TGI),TK-10; [2],0.891 µM
same,GI50,OVCAR-4; [1],1.58 µM
same,IC (TGI),OVCAR-4; [2],14.8 µM
same,GI50,MDA-N; [1],4.57 µM
same,IC (TGI),MDA-N; [2],19.5 µM
same,GI50,"NCI-H522; NCI-H522, read-out: Log10 GI50 (converted)",5.25 µM
same,IC (TGI),"NCI-H522; NCI-H522, read-out: Log10 TGI",17.4 µM
same,GI50,NCI-H460; [1],2.24 µM
same,IC (TGI),NCI-H460; [2],16.2 µM
same,GI50,SF-295; [1],15.1 µM
same,IC (TGI),SF-295; [2],28.2 µM
same,GI50,BT-549; [1],12.3 µM
same,IC (TGI),BT-549; [2],30.9 µM
same,GI50,HCC-2998; [1],2.51 µM
same,IC (TGI),HCC-2998; [2],11.5 µM
same,GI50,UO-31; [1],15.5 µM
same,IC (TGI),UO-31; [2],28.8 µM
